Reference: publication PMC8245078, “Development of novel benzofuran-isatin conjugates as potential antiproliferative agents with apoptosis inducing mechanism in Colon cancer” (Journal of Enzyme Inhibition and Medicinal Chemistry, 2021)
Where two headings read alike, the source gives them in different places.

Assays:
Type in all cases: cell-based
[1] = tested on: NCI/ADR-RES; assay: NCI single dose screening (10 µM); conditions: Homo sapiens, read-out: GI% (cell growth inhibition percentage)
[2] = tested on: M14; assay: NCI single dose screening (10 µM); conditions: Homo sapiens
[3] = tested on: NCI-55 cancer cell line panel; assay: NCI single dose screening (10 µM), whole panel; conditions: Homo sapiens, read-out: Mean inhibition, % (mean GI%)
[4] = tested on: OVCAR-8; assay: NCI single dose screening (10 µM); conditions: Homo sapiens
[5] = tested on: HL-60(TB); assay: NCI single dose screening (10 µM); conditions: Homo sapiens
[6] = tested on: HCC-2998; assay: NCI single dose screening (10 µM); conditions: Homo sapiens
[7] = tested on: CCRF-CEM; assay: NCI single dose screening (10 µM); conditions: Homo sapiens, read-out: GI% (cell growth inhibition percentage)
[8] = tested on: TK-10; assay: NCI single dose screening (10 µM); conditions: Homo sapiens
[9] = tested on: HCT-116; assay: NCI single dose screening (10 µM); conditions: Homo sapiens
[10] = tested on: MOLT-4; assay: NCI single dose screening (10 µM); conditions: Homo sapiens
[11] = tested on: K-562; assay: NCI single dose screening (10 µM); conditions: Homo sapiens
[12] = tested on: OVCAR-5; assay: NCI single dose screening (10 µM); conditions: Homo sapiens
[13] = tested on: OVCAR-4; assay: NCI single dose screening (10 µM); conditions: Homo sapiens
[14] = tested on: ACHN; assay: NCI single dose screening (10 µM); conditions: Homo sapiens, read-out: GI% (cell growth inhibition percentage)
[15] = tested on: MCF7; assay: NCI single dose screening (10 µM); conditions: Homo sapiens
[16] = tested on: NCI-H23; assay: NCI single dose screening (10 µM); conditions: Homo sapiens
[17] = tested on: CAKI-1; assay: NCI single dose screening (10 µM); conditions: Homo sapiens
[18] = tested on: U251; assay: NCI single dose screening (10 µM); conditions: Homo sapiens
[19] = tested on: SF-268; assay: NCI single dose screening (10 µM); conditions: Homo sapiens
[20] = tested on: NCI-H522; assay: NCI single dose screening (10 µM); conditions: Homo sapiens
[21] = tested on: SF-295; assay: NCI single dose screening (10 µM); conditions: Homo sapiens
[22] = tested on: HOP-62; assay: NCI single dose screening (10 µM); conditions: Homo sapiens
[23] = tested on: KM12; assay: NCI single dose screening (10 µM); conditions: Homo sapiens
[24] = tested on: SF-539; assay: NCI single dose screening (10 µM); conditions: Homo sapiens
[25] = tested on: EKVX; assay: NCI single dose screening (10 µM); conditions: Homo sapiens, read-out: GI% (cell growth inhibition percentage)
[26] = tested on: RXF 393; assay: NCI single dose screening (10 µM); conditions: Homo sapiens
[27] = tested on: BT-549; assay: NCI single dose screening (10 µM); conditions: Homo sapiens
[28] = tested on: MDA-MB-468; assay: NCI single dose screening (10 µM); conditions: Homo sapiens
[29] = tested on: HT-29; assay: NCI single dose screening (10 µM); conditions: Homo sapiens
[30] = tested on: MDA-MB-231/ATCC; assay: NCI single dose screening (10 µM); conditions: Homo sapiens
[31] = tested on: COLO 205; assay: NCI single dose screening (10 µM); conditions: Homo sapiens
[32] = M14, read-out: GI% (cell growth inhibition percentage)
[33] = OVCAR-8, read-out: GI% (cell growth inhibition percentage)
[34] = HL-60, read-out: GI% (cell growth inhibition percentage)
[35] = HCC 2998, read-out: GI% (cell growth inhibition percentage)
[36] = TK-10, read-out: GI% (cell growth inhibition percentage)
[37] = HCT-116, read-out: GI% (cell growth inhibition percentage)
[38] = MOLT-4, read-out: GI% (cell growth inhibition percentage)
[39] = K562, read-out: GI% (cell growth inhibition percentage)
[40] = OVCAR-5, read-out: GI% (cell growth inhibition percentage)
[41] = OVCAR-4, read-out: GI% (cell growth inhibition percentage)
[42] = MCF7, read-out: GI% (cell growth inhibition percentage)
[43] = NCI-H23, read-out: GI% (cell growth inhibition percentage)
[44] = CAKI-1, read-out: GI% (cell growth inhibition percentage)
[45] = U-251, read-out: GI% (cell growth inhibition percentage)
[46] = SF-268, read-out: GI% (cell growth inhibition percentage)
[47] = NCI-H522, read-out: GI% (cell growth inhibition percentage)
[48] = SF-295, read-out: GI% (cell growth inhibition percentage)
[49] = HOP-62, read-out: GI% (cell growth inhibition percentage)
[50] = KM12, read-out: GI% (cell growth inhibition percentage)
[51] = SF-539, read-out: GI% (cell growth inhibition percentage)
[52] = RXF 393, read-out: GI% (cell growth inhibition percentage)
[53] = BT-549, read-out: GI% (cell growth inhibition percentage)
[54] = MDA-MB-468, read-out: GI% (cell growth inhibition percentage)
[55] = HT-29, read-out: GI% (cell growth inhibition percentage)
[56] = MDA-MB-231, read-out: GI% (cell growth inhibition percentage)
[57] = COLO 205, read-out: GI% (cell growth inhibition percentage)

CCCN1C(=O)/C(=N\NC(=O)c2oc3ccccc3c2C)c2ccccc21 [Compound 7b]
inhibition at 10 µM [1]: 10.3% | inhibition at 10 µM [2, 32]: < 10% | inhibition at 10 µM [3]: 5.18% | inhibition at 10 µM [4, 33]: < 10% | inhibition at 10 µM [5, 34]: 10.9% | inhibition at 10 µM [6, 35]: < 10% | inhibition at 10 µM [7]: < 10% | inhibition at 10 µM [8, 36]: < 10% | inhibition at 10 µM [9, 37]: < 10% | inhibition at 10 µM [10, 38]: < 10% | inhibition at 10 µM [11, 39]: 11.4% | inhibition at 10 µM [12, 40]: < 10% | inhibition at 10 µM [13, 41]: < 10% | inhibition at 10 µM [14]: 11.6% | inhibition at 10 µM [15, 42]: 25% | inhibition at 10 µM [16, 43]: 15.1% | inhibition at 10 µM [17, 44]: 11.3% | inhibition at 10 µM [18, 45]: < 10% | inhibition at 10 µM [19, 46]: < 10% | inhibition at 10 µM [20, 47]: 10.3% | inhibition at 10 µM [21, 48]: 11.9% | inhibition at 10 µM [22, 49]: 18.1% | inhibition at 10 µM [23, 50]: < 10% | inhibition at 10 µM [24, 51]: < 10% | inhibition at 10 µM [25]: 32.4% | inhibition at 10 µM [26, 52]: < 10% | inhibition at 10 µM [27, 53]: < 10% | inhibition at 10 µM [28, 54]: < 10% | inhibition at 10 µM [29, 55]: < 10% | inhibition at 10 µM [30, 56]: 29% | inhibition at 10 µM [31, 57]: < 10%

Cc1c(C(=O)N/N=C2\C(=O)Nc3ccc(F)cc32)oc2ccccc12 [Compound 5b]
inhibition at 10 µM ([1]; Ovarian cancer, single dose 10^−5 M): < 10% | inhibition at 10 µM ([2]; M14, Melanoma, single dose 10^−5 M, read-out: GI% (cell growth inhibition percentage)): < 10% | inhibition at 10 µM ([3]; mean over NCI-55 cell lines, single dose 10^−5 M): 0.75% | inhibition at 10 µM ([4]; OVCAR-8, Ovarian cancer, single dose 10^−5 M, read-out: GI% (cell growth inhibition percentage)): < 10% | inhibition at 10 µM ([5]; HL-60(TB), Leukaemia, single dose 10^−5 M, read-out: GI% (cell growth inhibition percentage)): < 10% | inhibition at 10 µM ([6]; HCC-2998, Colon cancer, single dose 10^−5 M, read-out: GI% (cell growth inhibition percentage)): < 10% | inhibition at 10 µM ([7]; Leukaemia, single dose 10^−5 M): < 10% | inhibition at 10 µM ([8]; TK-10, Renal cancer, single dose 10^−5 M, read-out: GI% (cell growth inhibition percentage)): < 10% | inhibition at 10 µM ([9]; HCT-116, Colon cancer, single dose 10^−5 M, read-out: GI% (cell growth inhibition percentage)): < 10% | inhibition at 10 µM ([10]; MOLT-4, Leukaemia, single dose 10^−5 M, read-out: GI% (cell growth inhibition percentage)): < 10% | inhibition at 10 µM ([11]; K562, K-562, Leukaemia, single dose 10^−5 M, read-out: GI% (cell growth inhibition percentage)): < 10% | inhibition at 10 µM ([12]; OVCAR-5, Ovarian cancer, single dose 10^−5 M, read-out: GI% (cell growth inhibition percentage)): < 10% | inhibition at 10 µM ([13]; OVCAR-4, Ovarian cancer, single dose 10^−5 M, read-out: GI% (cell growth inhibition percentage)): < 10% | inhibition at 10 µM ([14]; Renal cancer, single dose 10^−5 M): < 10% | inhibition at 10 µM ([15]; MCF7, Breast cancer, single dose 10^−5 M, read-out: GI% (cell growth inhibition percentage)): 19% | inhibition at 10 µM ([16]; NCI-H23, Non-small cell lung cancer, single dose 10^−5 M, read-out: GI% (cell growth inhibition percentage)): < 10% | inhibition at 10 µM ([17]; CAKI-1, Renal cancer, single dose 10^−5 M, read-out: GI% (cell growth inhibition percentage)): 19.5% | inhibition at 10 µM ([18]; U-251, U251, CNS cancer, single dose 10^−5 M, read-out: GI% (cell growth inhibition percentage)): < 10% | inhibition at 10 µM ([19]; SF-268, CNS cancer, single dose 10^−5 M, read-out: GI% (cell growth inhibition percentage)): < 10% | inhibition at 10 µM ([20]; NCI-H522, Non-small cell lung cancer, single dose 10^−5 M, read-out: GI% (cell growth inhibition percentage)): 10.4% | inhibition at 10 µM ([21]; SF-295, CNS cancer, single dose 10^−5 M, read-out: GI% (cell growth inhibition percentage)): < 10% | inhibition at 10 µM ([22]; HOP-62, Non-small cell lung cancer, single dose 10^−5 M, read-out: GI% (cell growth inhibition percentage)): < 10% | inhibition at 10 µM ([23]; KM12, Colon cancer, single dose 10^−5 M, read-out: GI% (cell growth inhibition percentage)): < 10% | inhibition at 10 µM ([24]; SF-539, CNS cancer, single dose 10^−5 M, read-out: GI% (cell growth inhibition percentage)): < 10% | inhibition at 10 µM ([25]; Non-small cell lung cancer, single dose 10^−5 M): 29.6% | inhibition at 10 µM ([26]; RXF 393, Renal cancer, single dose 10^−5 M, read-out: GI% (cell growth inhibition percentage)): < 10% | inhibition at 10 µM ([27]; BT-549, Breast cancer, single dose 10^−5 M, read-out: GI% (cell growth inhibition percentage)): < 10% | inhibition at 10 µM ([28]; MDA-MB-468, Breast cancer, single dose 10^−5 M, read-out: GI% (cell growth inhibition percentage)): < 10% | inhibition at 10 µM ([29]; HT-29, Colon cancer, single dose 10^−5 M, read-out: GI% (cell growth inhibition percentage)): < 10% | inhibition at 10 µM ([30]; MDA-MB-231/ATCC, Breast cancer, single dose 10^−5 M, read-out: GI% (cell growth inhibition percentage)): 14.6% | inhibition at 10 µM ([31]; COLO 205, Colon cancer, single dose 10^−5 M, read-out: GI% (cell growth inhibition percentage)): < 10%

CCCN1C(=O)/C(=N\NC(=O)c2oc3ccccc3c2C)c2cc(Br)ccc21 [Compound 7g]
inhibition at 10 µM [1]: < 10% | inhibition at 10 µM [2, 32]: < 10% | inhibition at 10 µM [3]: -0.8% | inhibition at 10 µM [4, 33]: < 10% | inhibition at 10 µM [5, 34]: < 10% | inhibition at 10 µM [6, 35]: < 10% | inhibition at 10 µM [7]: < 10% | inhibition at 10 µM [8, 36]: < 10% | inhibition at 10 µM [9, 37]: < 10% | inhibition at 10 µM [10, 38]: < 10% | inhibition at 10 µM [11, 39]: < 10% | inhibition at 10 µM [12, 40]: < 10% | inhibition at 10 µM [13, 41]: < 10% | inhibition at 10 µM [14]: < 10% | inhibition at 10 µM [15, 42]: 13.2% | inhibition at 10 µM [16, 43]: < 10% | inhibition at 10 µM [17, 44]: 14.1% | inhibition at 10 µM [18, 45]: < 10% | inhibition at 10 µM [19, 46]: < 10% | inhibition at 10 µM [20, 47]: < 10% | inhibition at 10 µM [21, 48]: < 10% | inhibition at 10 µM [22, 49]: < 10% | inhibition at 10 µM [23, 50]: < 10% | inhibition at 10 µM [24, 51]: < 10% | inhibition at 10 µM [25]: 18.1% | inhibition at 10 µM [26, 52]: < 10% | inhibition at 10 µM [27, 53]: < 10% | inhibition at 10 µM [28, 54]: < 10% | inhibition at 10 µM [29, 55]: < 10% | inhibition at 10 µM [30, 56]: < 10% | inhibition at 10 µM [31, 57]: < 10%
